In experiment [1] the test system is cellulase genes (cbh-1, gh5-1, gh6-2). In words: Quantitative RT-PCR, cellulase gene expression stated for the genes together. Type of experiment: cell-based, Neurospora crassa. As for the experimental part:
Conidia from strains were inoculated at an OD595 equal to 0.05 in 50 ml Vogel's salts (45) with 2% w/v sucrose in a 250 ml Erlenmeyer flask and grown under constant light at 200 rpm for 16 hours. Biomass was then spun at 4200 rpm for 10 minutes and washed in Vogel's salts twice to remove any excess sucrose. […] Cultures were induced for 4 hrs under constant light at 200 rpm. The culture biomass was then harvested by filtration over a Whatman glass microfiber filter (GF/F) on a Buchner funnel and washed with 50 ml Vogel's salts. The biomass was flash frozen in liquid nitrogen and stored at −80° C. Three independent biological duplicates (flasks) were evaluated for each time point.
Total RNA from frozen samples was isolated using Zirconia/Silica beads (0.5 mm diameter; Biospec) and a Mini-Beadbeater-96 (Biospec) with 1 mL TRIzol reagent (Invitrogen) according to the manufacturer's instructions. The total RNA was further purified by digestion with TURBO DNA-free (Ambion) and an RNeasy kit (Qiagen). RNA concentration and integrity was checked by Nanodrop and agarose gel electrophoresis.
Quantitative RT-PCR was performed using the EXPRESS One-Step SYBR GreenER Kit (Invitrogen) and the StepOnePlus Real-Time PCR System (Applied Biosystems). Reactions were performed in triplicate with a total reaction volume of 10 μl including 300 nM each forward and reverse primers and 75 ng template RNA. Data Analysis was performed by the StepOne Software (Applied Biosystems) using the Relative Quantitation/Comparative CT (ΔΔCT) setting. Data was normalized to the endogenous control actin with expression on sucrose as the reference sample.

The test system of experiment [2] is cbh-1. In words: mRNA sequencing (RNA-Seq), transcript abundance of cbh-1. Type of experiment: cell-based, Neurospora crassa. The following applies: Δ3βG; 4 hours after transfer to 0.2% cellobiose. The procedure:
Conidia from strains were inoculated at an OD595 equal to 0.05 in 50 ml Vogel's salts (45) with 2% w/v sucrose in a 250 ml Erlenmeyer flask and grown under constant light at 200 rpm for 16 hours. Biomass was then spun at 4200 rpm for 10 minutes and washed in Vogel's salts twice to remove any excess sucrose. Biomass was then added to a new flask containing 50 ml Vogel's salts supplemented with 1% w/v sucrose, 0.2% w/v cellobiose (Sigma) or 1% w/v Avicel® PH 101 (Sigma). Cultures were induced for 4 hrs under constant light at 200 rpm. The culture biomass was then harvested by filtration over a Whatman glass microfiber filter (GF/F) on a Buchner funnel and washed with 50 ml Vogel's salts. The biomass was flash frozen in liquid nitrogen and stored at −80° C. Three independent biological duplicates (flasks) were evaluated for each time point.
Total RNA from frozen samples was isolated using Zirconia/Silica beads (0.5 mm diameter; Biospec) and a Mini-Beadbeater-96 (Biospec) with 1 mL TRIzol reagent (Invitrogen) according to the manufacturer's instructions. […]
mRNA sequencing was performed using an Illumina kit (RS-100-0801) with isolated RNA. The final cDNA library was quantified by an Agilent bioanalyzer 2000 and sequenced using an Illumina Genome Analyzer-II using standard Illumina operating procedures. […]

Experiment [3] has as its system Neurospora crassa. In words: Bioreactor cellulase production, total secreted protein in supernatant. Type of experiment: cell-based. As to conditions: pre-grown 24 hours on 1% sucrose, induction with 0.2%. The procedure: Cellulase production was carried out in a 3.7 L bioreactor (BioEngineering AG) at an operating volume of 1 L. The bioreactor was equipped with one 48 mm Rushton impeller and four equally spaced baffles to provide adequate mixing. Impeller speed was controlled at 200 rpm for 8 hours to allow spore germination followed by 500 rpm for the remainder of the experiment. The temperature was maintained at 25° C., and medium pH was controlled at 5.5 using 40% phosphoric acid and 1:5 diluted ammonium hydroxide. The dissolved oxygen was maintained at a level greater than 20% of the saturation value of the medium by varying the aeration rate between 0.5 and 3 VVM in response to the dissolved oxygen tension. Minimal growth medium with 1% w/v sucrose as the sole carbon source (unless otherwise noted) was inoculated with 10^9 conidia. After 24 hours initial growth, cellulase production was induced with either cellobiose or Avicel® added to a final concentration of 0.2% w/v. Supernatant samples were collected at timepoint 0, 12 hours before induction, at induction, as well as 4, 8, 12, 24 and 36 hours post induction. Samples were spun at 4000 rpm for 5 minutes to pellet biomass and the supernatant was filtered through a 0.2 μm PES filter before being stored at −20° C. until all samples were collected.
Total secreted proteins were measured using the Bio-Rad Protein Assay kit (Bio-Rad) and visualized by running 15 μl of unconcentrated supernatant on a Criterion 4-14% Tris-HCL polyacrylamide gel and stained with Thermo Scientific GelCode Blue Stain Reagent.

The subject of experiment [4] is Neurospora crassa. Kind of experiment: Avicel hydrolysis assay with shake flask culture supernatants. Type of experiment: cell-based. The procedure: Cultures were grown in 1% sucrose for 24 hours followed by the addition of 2% sucrose or 0.2% cellobiose. Supernatant was harvested after 24 (WT, Δ3βG and Δ3βGΔcre) or 72 hours (Δ3βG). The WT Avicel® culture was grown for 5 days on 2% Avicel®, Δ3βG was grown in 1% sucrose for 24 hours followed by 48 hours in 1% Avicel® and Δ3βGΔcre was grown in 1% sucrose for 24 hours followed by 24 hours in 1% Avicel®.
Total Avicelase activity was conducted in 250 mL media bottles incubated at 50° C. on a orbital shaker at 200 rpm. Each bottle contained 1% cellulose (Avicel®) and 50 mM (pH 5.0) sodium acetate in a working volume of 50 mL. Tetracycline (10 μg/mL) was added to prevent microbial contamination. Bioreactor culture broth samples were buffer exchanged using a 10 kDa MWCO centrifugal filter to remove any soluble sugars prior to initiating hydrolysis experiments. After pre-incubating the hydrolysis mixture to 50° C., enzyme was added (1 mL filtered culture broth). Samples were taken every 4 hours for the first 12 hours and then every 12 hours thereafter for a total of 48 hours. Hydrolysis experiments were performed in triplicate.
Sucrose, fructose, glucose and cellobiose were measured on a DIONEX ICS-3000 HPLC (Dionex Corp., Sunnyvale, Calif.) using a CarboPac PA20 Analytical Column (3×150 mm) and a CarboPac PA20 guard column (3×30 mm) at 30° C. Following injection of 25 μl of diluted samples, elution was performed with 100 mM KOH (isocratic) at 0.4 ml/min. Sugars were detected using PAD, Four-Potential Carbohydrate Waveform and Peaks were analyzed using the Chromeleon software package.

Structures are written as SMILES.

Consider `O=C[C@H](O)[C@@H](O)[C@H](O[C@@H]1O[C@H](CO)[C@@H](O)[C@H](O)[C@H]1O)[C@H](O)CO` [cellobiose], for which the “induction of cbh-1, gh6-2, or gh5-1 expression” value in experiment [1] (individual β-glucosidase deletion strains (Δgh1-1, Δgh3-3 or Δgh3-4), 4 hr induction, 0.2%) is listed as “did not show a significant induction”. Further, the “induction of lignocellulolytic genes” value in experiment [1] (wild-type N. crassa (WT) grown on the substance as sole carbon source) is “not induced”. The cellulase gene induction entry in experiment [1] (Δgh1-1Δgh3-3 double mutant, 4 hr induction, 0.2%) is “showed some cellulase gene induction”. For the same compound, in experiment [2], the “FPKM for cbh-1” value was 130,865 FPKM. For the same compound, the “protein in the supernatant” value was 0.05 mg/mL in experiment [3] (WT), 0.12 mg/mL in experiment [3] (Δ3βG) and 0.24 mg/mL in experiment [3] (Δ3βGΔcre). Also, the “hydrolysis of crystalline cellulose by culture supernatant” value is “did not” in experiment [4] (WT cultures grown on or induced with the substance), “hydrolyzed crystalline cellulose” in experiment [4] (Δ3βG cultures grown on or induced with the substance) and “hydrolyzed crystalline cellulose” in experiment [4] (Δ3βGΔcre cultures grown on or induced with the substance).

For the origin of these results see patent US9822373B2, “Mutant cells for protein secretion and lignocellulose degradation” (The Regents of the University of California, priority 2011, dated 2017).
